Assay results reported in ChEMBL document CHEMBL4431332, “Identification and Investigation of Novel Binding Fragments in the Fatty Acid Binding Protein 6 (FABP6)” (J Med Chem, 2016).

Tests used:
Gastrotropin = target: T1, Gastrotropin (Homo sapiens, UniProt P51161); assay: Binding affinity to recombinant human N-terminal His6 and Avi-tagged FABP6 expressed in Escherichia coli NEB cells by surface plasmon resonance method
T1 sequence (P51161 whole entry): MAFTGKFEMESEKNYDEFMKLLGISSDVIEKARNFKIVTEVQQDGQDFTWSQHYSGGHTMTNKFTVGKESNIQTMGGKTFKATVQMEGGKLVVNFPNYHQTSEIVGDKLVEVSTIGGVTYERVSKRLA

[1] = target: T2, Fatty acid-binding protein, liver (Homo sapiens, UniProt P07148); assay: Binding affinity to recombinant human N-terminal His6 and Avi-tagged FABP1 expressed in Escherichia coli NEB cells by surface plasmon resonance method
T2 sequence (P07148 whole entry): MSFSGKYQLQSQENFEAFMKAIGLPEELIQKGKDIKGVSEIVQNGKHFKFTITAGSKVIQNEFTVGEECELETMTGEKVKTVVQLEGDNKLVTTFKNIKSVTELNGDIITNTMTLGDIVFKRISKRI

Row | Kd (Gastrotropin) [µM] | Kd [1] [µM] | SMILES
1 | 300 | > 1000 | CS(=O)(=O)N1CCCC(NCc2ccccc2)CC1 (centres undefined)
2 | 80 | > 1000 | COC(=O)c1cscc1-c1ccc(C(=O)N2CCOCC2)o1
3 | 400 | – | Cc1nc(Cn2cnc3cc(C)c(C)cc32)cs1
4 | 210 | > 1000 | CN1CCN(C(=O)c2ccc(=O)n(Cc3ccc(Cl)cc3)c2)CC1
5 | 210 | 400 | O=C(c1ccco1)N1CCN(Cc2ccc3c(c2)OCO3)CC1
6 | – | > 1000 | Cc1cc2nc(N)[nH]c2cc1C
7 | 300 | 300 | c1ccc(CNc2ccccn2)cc1
8 | 290 | > 1000 | Cc1ccccc1CN1CCN(C(=O)c2cccnc2)CC1
9 | 40 | > 1000 | O=C1NCCOc2ccc(F)cc21
10 | 13 | – | Nc1nc2ccc(C(=O)c3ccccc3)cc2[nH]1
11 | 200 | 900 | Nc1c2c(nc3ccccc13)CCCC2 [TACRINE]
